The nature of this assay: Biochemical Assay: Test compounds were placed in a Greiner Bio-One (Monroe, N.C.) 1536-well black solid bottom assay plate. 200 millimolar (mM) Tris HCl, pH 7.4, 100 micromolar […] EDTA and 0.01% TWEEN-20™, final concentration, was used as the assay buffer. The LDHA reagent was 2 nanomolar (nM) Human LDHA (Meridian Life Science, Inc., Memphis, Tenn.), final concentration, in assay buffer.

Our source for the IC50 values is ChEMBL document CHEMBL5728357, “Small molecule inhibitors of lactate dehydrogenase and methods of use thereof” (2021).

Several values for one entry are separate records, joined by “and”; a condition that tells them apart may be missing. Equal entries are not always repeated.

What is called IC50 is the concentration that inhibits the measured activity by half. Turning to `NS(=O)(=O)c1ccc(Cc2c(-c3cccc(-c4ccccc4)c3)nn(-c3nc(C(=O)O)cs3)c2CCC2CC2)cc1`, the half-maximal inhibitory concentration (IC50) is below 100 nM. `C/C=C/c1cc(-c2nn(-c3nc(C(=O)O)cs3)c(CC3CC3)c2Cc2ccc([S+](N)(=O)[O-])c(F)c2)ccc1F`: the IC50 was below 100 nM. In turn, `N[S+](=O)([O-])c1ccc(Cc2c(-c3ccc(F)c(C(F)(F)F)c3)nn(-c3nc(C(=O)O)cs3)c2CC2CC2)cc1F` had an IC50 below 100 nM. Turning to `CC(C)=Cc1cc(-c2nn(-c3nc(C(=O)O)cs3)c(CC3CC3)c2Cc2ccc([S+](N)(=O)[O-])c(F)c2)ccc1F`, the IC50 was below 100 nM. `CCOC(=O)c1csc(-n2nc(-c3ccc(F)c(C#CC4CCCC4)c3)c(Cc3cccc([S+](N)(=O)[O-])c3)c2CC2CC2)n1` returned an IC50 above 57000 nM. In the case of `COc1cccc(-c2cccc(-c3nn(-c4nc(C(=O)O)cs4)c(C4CC4)c3Cc3ccc([SH+](N)[O-])c(F)c3)c2)c1` (stereo not given), the IC50 is below 100 nM. The molecule `C=C(C)c1cc(-c2nn(-c3nc(C(=O)O)cs3)c(CC3CC3)c2Cc2ccc([S+](N)(=O)[O-])c(F)c2)ccc1F` yielded a 50% inhibitory concentration (IC50) below 100 nM. Take `CCOC(=O)c1csc(-n2nc(-c3cccc(-c4ccc(C)cc4)c3)c(Cc3ccc([SH+](=O)[O-])c(F)c3)c2CC2CC2)n1`: the IC50 result was “in the range around 29000 nM and > 57000 nM”. Under `N[S+](=O)([O-])c1ccc(Cc2c(-c3ccc(F)c(/C=C/C4CC4)c3)nn(-c3nc(C(=O)O)cs3)c2CC2CC2)cc1F` stands below 100 nM; under `N[S+](=O)([O-])c1ccc(Cc2c(-c3ccc(F)c(-c4ccc(F)cc4)c3)nn(-c3nc(C(=O)O)cs3)c2CC2CC2)c(F)c1`, below 100 nM; under `N[S+](=O)([O-])c1ccc(Cc2c(-c3ccc(F)c(/C=C/C4CCCC4)c3)nn(-c3nc(C(=O)O)cs3)c2CC2CC2)cc1F`, below 100 nM. The figure for `Cc1ccc(-c2cccc(-c3nn(-c4nc(C(=O)O)cs4)c(CC4CC4)c3Cc3ccc([SH+](N)[O-])cc3F)c2)cc1` (stereo not given) is below 100 nM.

With `Cc1ccc(-c2cc(-c3nn(-c4nc(C(=O)O)cs4)c(CC4CC4)c3Cc3ccc([SH+](N)[O-])c(F)c3)ccc2F)cc1` (stereo not given), the IC50 was below 100 nM.

`CC#Cc1cccc(-c2nn(-c3ncc(C(=O)OCC)s3)c(CC3CC3)c2Cc2ccc([SH+](N)[O-])c(F)c2)c1` (stereo not given): the IC50 result is “in the range around 29000 nM”. On to `NS(=O)(=O)c1ccc(Cc2c(CC3CC3)nn(-c3nc(OC=O)cs3)c2-c2cc(F)cc(-c3cccc(F)c3)c2)cc1`, for which the IC50 entry was “in the range around 29000 nM”.
